Measurements published in US20100196357A1, “Microrna modulators and method for identifying and using the same” (priority 2008, published 2010).

Test system: miR-21
Experiment: high throughput screen for compounds that modulate miR-21
Format: cell-based
Conditions: Homo sapiens; Tables 4-12
Source text: This example describes a high throughput screening assay to identify small organic molecules that perturb the miRNA process. These active small molecules can be used as novel chemical tools to better understand miRNA functions and the molecular mechanisms of miRNA biogenesis. Moreover, miRNA inhibitors can be potentially developed into new therapeutics, including anticancer and antiviral agents. The high throughput assay is composed of a two-stage screening protocol, including of a primary screen to identify potential lead compounds from small molecule collections, and a secondary screen to evaluate and characterize the primary actives and to obtain a detailed structure-activity relationship (SAR).
Primary miR-21 Assay. The primary miR-21 FLuc reporter assay is carried out with HeLa cells expressing the Luc-miR-21 reporter using a 48-hour incubation time. Active compounds that increase the luciferase response are identified based upon inhibition of miR-21.
SAR. The concentration-response data for the entire high throughput screen is plotted and modeled by a four parameter logistic fit and SAR analysis is performed according to conventional approaches (Iglese, et al. (2006) Proc. Natl. Acad. Sci. USA 130:11473-8). In brief, Class 1.1 and 1.2 are full curves containing upper and lower asymptotes with efficacy ≧80% and <80%, respectively. […]

Row | Compound | AC50 [µM]
1 | C/C(=N\NC(=O)c1cccs1)c1ccncc1 | 7.36
2 | COc1ccc2c(c1)CC(C)C/C2=N\NC(=O)c1ccco1 (centres unmarked) | 16.5
